The results in this text go back to US20250084063A1 (Incyte Corporation, priority 2023, published 2025).

Common to all, as to assay type: cell-based
The target of assay [1] is T1, MRGPRX2 (Homo sapiens, UniProt Q96LB1).
T1 sequence (Q96LB1 1-330): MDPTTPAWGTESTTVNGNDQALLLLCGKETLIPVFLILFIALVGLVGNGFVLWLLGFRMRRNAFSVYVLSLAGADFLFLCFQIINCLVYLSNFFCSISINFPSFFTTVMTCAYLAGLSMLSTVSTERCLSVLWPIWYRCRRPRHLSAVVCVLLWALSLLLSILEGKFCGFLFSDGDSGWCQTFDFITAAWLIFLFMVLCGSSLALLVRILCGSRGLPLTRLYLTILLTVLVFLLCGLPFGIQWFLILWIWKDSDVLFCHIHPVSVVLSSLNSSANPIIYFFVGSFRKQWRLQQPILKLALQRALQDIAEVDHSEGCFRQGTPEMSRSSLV
Nature of the assay: MRGPRX2 β-Arrestin assay. To be noted: PathHunter CHO-K1 MRGPRX2 β-Arrestin cell line; agonist Cortistatin 14 0.25 μM. On the set-up: host or cells: PathHunter CHO-K1. An excerpt:
Example C: MRGPRX2 β-Arrestin Assay
This assay measures compound inhibition of β-Arrestin recruitment, which is part of the G protein-independent pathway that results from the ligand-activated GPCR phosphorylation by specific GPCR kinases. The PathHunter CHO-K1 MRPGRX2 B-Arrestin Cell line stably expressing ProLink tagged MRGPRX2 and Enzyme Acceptor Tagged B-Arrestin was purchased from Eurofins DiscoverX, (Fremont, CA).
The cells were maintained in culture medium from the Europhins DiscoverX Cell Culture Kit-107 which includes FBS, hygromycin B and G418. For the assay, the cells were harvested and were resuspended with Cell Plating Reagent 2 (Eurofins DiscoverX). Cells were added 10000 cells in 25 µL/well to a 384-well black cell culture plate (Greiner VWR, Radnor, PA) which contained 125 nL/well of compound at a selected serially diluted concentration range or DMSO. The plate was incubated at 37° C. with 5% CO2 for 1 h. 2 μL/well of agonist Cortistatin 14 was diluted in Protein Dilution Buffer, (Eurofins DiscoverX) for a final concentration of 0.25 μM, was added and the plate was incubated at 37° C. with 5% CO2 for 90 min. 14 μL/well of Detection Reagent Mix (PathHunter Detection Kit, Eurofins DiscoverX) was added to the plates and further incubated for 1 h in the dark. Plates were read on the PHERAstar microplate reader (BMG Labtech Cary, NC) measuring luminescence 0.1 to 1 second per well. Data was normalized using DMSO only wells and wells with high concentration of reference antagonist as controls. Compound IC50 curves were globally fitted with 3- or 4-parameter Hill equation in a Genedata Screener (Genedata Basel, Switzerland).

In assay [2] the target is T1, MRGPRX2. Nature of the assay: MRGPRX2 IP1 HTRF assay. Further details: host or cells: CHO-K1. To be noted: CHO-K1 cells stably expressing human MRGPRX2; IP1 accumulation, agonist Cortistatin 14 1 μM. An excerpt:
Example B: MRGPRX2 IP1 HTRF Assay
This assay measures compound inhibition of myo-Inositol 1 phosphate (IP1) accumulation in CHO-K1 cells. Chinese hamster ovary (CHO-K1) cells stably expressing human MRGPRX2 were purchased from GenScript (Piscataway, NJ).
For the HTRF IP1 determination, an IP-One GqKit (Perkin Elmer Cisbio, Waltham, MA), which includes all reagents and buffers in this protocol, was used. The cells were maintained in culture medium (Ham's F-12K) containing 10% (v/v) FBS, and 200 μg/mL Zeocin. For the assay, the cells were harvested and resuspended in culture medium with 2% FBS and without Zeocin, then were passed through a 40 μm filter. Cells were added at 20000 cells in a 5 μL/well to a 384-well white small volume cell culture plate (Greiner VWR, Radnor, PA) which contained 50 nL/well of test compound serially diluted at a selected concentration range in DMSO. 5 μL/well of prepared 2× Stimulation Buffer2 was then added to plates and was incubated at 37° C. with 5% CO2 for 1 h. 5 μL/well of agonist Cortistatin 14 (Bio-TechneR&D Systems, Minneapolis, MN) in 1× Stimulation Buffer 2, for a 1 μM final concentration, was then added to plates and incubated at 37° C. with 5% CO2 for 1 h. 6 μL/well of 1:20 diluted Detection Reagent Mix (d2 and Cryptate) was added to the plates and incubated for 1 h in the dark. Plates were read on the PHERAstar microplate reader (BMG Labtech Cary, NC) to determine the HTRF ratio of the acceptor and donor emission signals. The IP1 concentrations were calculated from a standard curve following the IP-One GQ kit instructions. Wells with DMSO only and wells with high concentration of reference antagonist were used as controls for normalization. Compound IC50 curves were globally fitted with 3- or 4-parameter Hill equation in a Genedata Screener (Genedata Basel, Switzerland).
For orientation: Time-resolved FRET reads energy transfer from a long-lived donor to a nearby acceptor.

The target in assay [3] is T1, MRGPRX2. The assay can be described thus: MRGPRX2 FLIPR calcium mobilization assay. Further details: host or cells: CHO-K1. The following applies: CHO-K1 cells stably expressing human MRGPRX2; Ca2+ release, agonist Cortistatin-14 at EC80. How it is done: Example A. MRGPRX2 FLIPR Calcium Mobilization Assay
Chinese hamster ovary (CHO-K1) cells stably expressing human MRGPRX2 were purchased from Genescript (Piscataway, NJ). The cells were maintained in culture medium (Ham's F-12K) containing 10% (v/v) FBS, 200 μg/mL Zeocin, 100 units/mL penicillin G and 100 μg/mL streptomycin (Life Technologies, Carlsbad, CA). For the assay, the cells were harvested and resuspended with culture medium without Zeocin before plating at 8000 cells per well in 20 μL in 384-well black clear bottom cell culture plates (VWR, Radnor, PA). After 24 h culture at 37° C. and 5% CO2, the cells were loaded with 20 μL/well of calcium dye (FLIPR Calcium 6 Assay Kit, Molecular Devices, San Jose, CA) diluted in loading buffer (1×Hank's Balanced Salt Solution (HBSS), 5 mM probenecid, 20 mM 4-(2-hydroxyethyl)-1-piperazineethanesulfonic acid (HEPES), pH 7.4, VWR, Radnor, PA) followed with 45 min incubation at 37° C. and 40 min at room temperature in the dark. Cells were then treated with the addition of 10 uL/well test compounds with a range of increasing concentrations diluted in the assay buffer (1×HBSS, 20 mM HEPES, pH 7.4, VWR, Radnor, PA) with FLIPR Penta (Molecular Devices. San Jose, CA) and incubated for 30 min. at room temperature. Ca^2+ release was measured with FLIPR Penta with 10 seconds basal fluorescence measurement, then 12.5 μL of 5× agonist Cortistatin-14 (Tocris, Minneapolis, MN) at final concentration corresponding to the EC80 were added followed with continued fluorescence signal monitoring for an additional 110 seconds. The base line adjusted (median of first 10s base line) max value of the Relative Fluorescence Unit (RFU) was plotted against compound concentrations. Wells with no compound were served as the positive controls, and wells with high concentration of reference antagonist were used as negative controls. IC50 curves were globally fitted with 3- or 4-parameter Hill equation in a Genedata Screener (Genedata Basel, Switzerland).

The IC50 is the concentration at which inhibition is half-maximal. In assay [1], `[2H]C([2H])([2H])NC(=O)N1CC(CNc2cc(C(F)(F)F)nc3ccc(Cl)cc23)(n2ncc3c2CCC3)C1` [Example 69, 3-(((6-Chloro-2-(trifluoromethyl)quinolin-4-yl)amino)methyl)-3-(5,6-dihydrocyclopenta[c]pyrazol-1(4H)-yl)-N-(methyl-d3)azetidine-1-carboxamide] gave an IC50 of 0.1 to 100 nM. In the case of `NS(=O)(=O)N1CC(CNc2cc(C(F)(F)F)nc3ccc(Cl)cc23)(c2ccnc(Cl)c2)C1` [Example 35, 3-(((6-Chloro-2-(trifluoromethyl)quinolin-4-yl)amino)methyl)-3-(2-chloropyridin-4-yl)azetidine-1-sulfonamide], the IC50 in assay [2] and in assay [3] was 0.1 to 100 nM in each case. In the case of `NC(=O)N1CC(CNc2cc(C(F)(F)F)nc3cccc(F)c23)(c2ccc(F)cn2)C1` [Example 60, 3-(((5-Fluoro-2-(trifluoromethyl)quinolin-4-yl)amino)methyl)-3-(5-fluoropyridin-2-yl)azetidine-1-carboxamide], the IC50 was over 1000 nM in assay [2] and 100 to 1000 nM in assay [3]. For `NC(=O)N1CC(CNc2cc(C(F)(F)F)nc3cc(C(F)(F)F)ccc23)(c2ccc(F)cn2)C1` [Example 63, 3-(((2,7-Bis(trifluoromethyl)quinolin-4-yl)amino)methyl)-3-(5-fluoropyridin-2-yl)azetidine-1-carboxamide], in that order: over 1000 nM and 100 to 1000 nM. For the molecule `NC(=O)N1CC(CNc2cc(C(F)(F)F)nc3ccc(Cl)cc23)(c2ccc(F)cc2)C1` [Example 39, 3-(((6-Chloro-2-(trifluoromethyl)quinolin-4-yl)amino)methyl)-3-(4-fluorophenyl)azetidine-1-carboxamide], the IC50 in assay [2] and in assay [3] was 0.1 to 100 nM in each case. On to `NS(=O)(=O)N1CC(CNc2cc(C(F)(F)F)nc3ccc(Cl)cc23)(n2cc(Cl)cn2)C1` [Example 36, 3-(4-Chloro-1H-pyrazol-1-yl)-3-(((6-chloro-2-(trifluoromethyl)quinolin-4-yl)amino)methyl)azetidine-1-sulfonamide], for which the IC50 in assay [2] and in assay [3] was 0.1 to 100 nM throughout. For `CN1CCC(CNc2cc(C(F)(F)F)nc3ccc(Cl)cc23)(c2ccccc2)CC1` [Example 15, 6-Chloro-N-((1-methyl-4-phenylpiperidin-4-yl)methyl)-2-(trifluoromethyl)quinolin-4-amine], the IC50 in assay [2] and in assay [3] was 0.1 to 100 nM throughout.

In the case of `Fc1ccc(C2(CNc3cc(C(F)(F)F)nc4ccc(Cl)cc34)COC2)cc1` [Example 50, 6-Chloro-N-((3-(4-fluorophenyl)oxetan-3-yl)methyl)-2-(trifluoromethyl)quinolin-4-amine], the IC50 in assay [2] and in assay [3] was 0.1 to 100 nM throughout. For the molecule `CNC(=O)N1CC(CNc2cc(C(F)(F)F)nc3ccc(Cl)cc23)(c2ccccc2)C1` [Example 48, 3-(((6-Chloro-2-(trifluoromethyl)quinolin-4-yl)amino)methyl)-N-methyl-3-phenylazetidine-1-carboxamide], the IC50 in assay [2] and in assay [3] was 0.1 to 100 nM each time. Consider `CNC1CCC(CNc2cc(C(F)(F)F)nc3ccc(Cl)cc23)(c2ccccc2)C1` (stereo not shown) [Example 55, 6-Chloro-N-((3-(methylamino)-1-phenylcyclopentyl)methyl)-2 (trifluoromethyl)quinolin-4-amine], for which the IC50 in assay [2] and in assay [3] was 0.1 to 100 nM throughout.

As for `COc1cnn(C2(CNc3cc(C(F)(F)F)nc4ccc(Cl)cc34)CN(C(N)=O)C2)c1` [Example 102, 3-(((6-Chloro-2-(trifluoromethyl)quinolin-4-yl)amino)methyl)-3-(4-methoxy-1H-pyrazol-1-yl)azetidine-1-carboxamide], the IC50 in assay [2] is 100 to 1000 nM; in assay [3], 0.1 to 100 nM. For `NS(=O)(=O)N1CCC(CNc2cc(C(F)(F)F)nc3ccc(Cl)cc23)(c2ccc(F)cn2)CC1` [Example 100, 4-(((6-Chloro-2-(trifluoromethyl)quinolin-4-yl)amino)methyl)-4-(5-fluoropyridin-2-yl) piperidine-1-sulfonamide] the same measures were 0.1 to 100 nM and 0.1 to 100 nM. `N#Cc1cnn(C2(CNc3cc(C(F)(F)F)nc4ccc(Cl)cc34)CN(C(N)=O)C2)c1` [Example 101, 3-(((6-Chloro-2-(trifluoromethyl)quinolin-4-yl)amino)methyl)-3-(4-cyano-1H-pyrazol-1-yl)azetidine-1-carboxamide]: the IC50 in assay [2] and in assay [3] was 0.1 to 100 nM throughout.

On to `Cc1ccn(C2(CNc3cc(C(F)(F)F)nc4ccc(Cl)cc34)CN(C(N)=O)C2)n1` [Example 103, 3-(((6-Chloro-2-(trifluoromethyl)quinolin-4-yl)amino)methyl)-3-(3-methyl-1H-pyrazol-1-yl)azetidine-1-carboxamide], for which the IC50 in assay [2] and in assay [3] was 0.1 to 100 nM each time. With `Cc1ccc2nc(C(F)(F)F)cc(NCC3(c4ccc(F)cn4)CN(C(N)=O)C3)c2c1` [Example 56, 3-(5-Fluoropyridin-2-yl)-3-(((6-methyl-2-(trifluoromethyl)quinolin-4-yl)amino)methyl)azetidine-1-carboxamide], the IC50 lay within 100 to 1000 nM in assay [2] and 0.1 to 100 nM in assay [3]. For `NS(=O)(=O)N1CC(CNc2cc(C(F)(F)F)nc3ccc(Cl)cc23)(c2ccc(F)c(F)c2)C1` [Example 34, 3-(((6-Chloro-2-(trifluoromethyl)quinolin-4-yl)amino)methyl)-3-(3,4-difluorophenyl)azetidine-1-sulfonamide] the same measures were 0.1 to 100 nM and 0.1 to 100 nM.
